{"source": "paper PMC7112121", "about": "(Bioorganic Chemistry, 2019)", "key": {"ACV^r-HSV-1": {"system": "ACV^r-HSV-1", "test": "Antiviral CPE reduction assay, ACVr-HSV-1 in HEL cells", "type": "cell-based"}, "[1]": {"system": "Vesicular stomatitis virus", "type": "cell-based"}, "HSV-1": {"system": "HSV-1", "test": "Antiviral CPE reduction assay, HSV-1 in HEL cells", "type": "cell-based, Herpes simplex virus-1"}, "VERO cells": {"system": "VERO cells", "conditions": "minimum cytotoxic concentration, microscopic inspection of cell morphology"}, "CRFK feline kidney cells": {"system": "CRFK feline kidney cells", "conditions": "MTS cell viability assay"}, "Punto Toro virus": {"system": "Punto Toro virus", "test": "Antiviral CPE reduction assay, Punto Toro virus in VERO cells", "type": "cell-based, Punta toro virus"}, "Sindbis virus": {"system": "Sindbis virus", "test": "Antiviral CPE reduction assay, Sindbis virus in VERO cells", "type": "cell-based"}, "Parainfluenza-3 virus": {"system": "Parainfluenza-3 virus", "test": "Antiviral CPE reduction assay, Parainfluenza-3 virus in VERO cells", "type": "cell-based"}, "Vaccinia virus": {"system": "Vaccinia virus", "test": "microbe, parasite or virus in culture", "type": "cell-based"}, "Coxsackie B4 virus": {"system": "Coxsackie B4 virus", "test": "Antiviral CPE reduction assay, Coxsackie B4 virus in VERO cells", "type": "cell-based"}, "HSV-2": {"system": "HSV-2", "test": "Antiviral CPE reduction assay, HSV-2 in HEL cells", "type": "cell-based, Herpes simplex virus-2"}, "[2]": {"system": "human embryonic lung (HEL) fibroblast cells", "conditions": "minimum cytotoxic concentration, microscopic inspection of cell morphology"}, "DNA virus": {"system": "DNA virus", "test": "Anti-DNA virus activity in HEL cells", "type": "cell-based"}, "Reovirus-1": {"system": "Reovirus-1", "test": "Antiviral CPE reduction assay, Reovirus-1 in VERO cells", "type": "cell-based"}, "[3]": {"system": "Mycobacterium tuberculosis H37Rv", "conditions": "for H37Rv Finding Activity: M. tuberculosis H37Rv, MABA in BACTEC 12B medium"}, "Feline herpesvirus": {"system": "Feline herpesvirus", "test": "Antiviral CPE reduction assay, Feline herpesvirus in CRFK cells", "type": "cell-based", "conditions": "Felid alphaherpesvirus 1, CRFK, read-out: Antiviral EC50 Feline herpesvirus"}, "in vitro [4]": {"test": "in vitro", "conditions": "cat"}, "Feline coronavirus": {"system": "Feline coronavirus", "test": "microbe, parasite or virus in culture", "conditions": "Alphacoronavirus 1, CRFK, read-out: Antiviral EC50 Feline coronavirus"}, "[5]": {"system": "Mycobacterium tuberculosis H37Rv", "test": "microbe, parasite or virus in culture", "conditions": "read-out: H37Rv Finding MIC"}, "in vitro [6]": {"test": "in vitro", "conditions": "African green monkey"}, "[7]": {"conditions": "HEL cells, CPE by microscopy, mean of two experiments"}, "[8]": {"conditions": "VERO cells, CPE by microscopy, mean of two experiments"}}}
{"molecule": "O=C(Cc1csc2nc(-c3ccc(Br)cc3)cn12)NN=C1CCC(c2ccccc2)CC1", "note": "(stereo not drawn) [Compound 4c, 6-(4-Bromophenyl)–N^2-(4-phenylcyclohexylidene)imidazo[2,1-b]thiazole-3-acetohydrazide]", "values": [{"measurement": "Antiviral EC50 ACV^r-HSV-1", "setting": "ACV^r-HSV-1; [7]", "result": "≥45", "unit": "µg/mL"}, {"measurement": "Antiviral EC50 Vesicular stomatitis virus", "setting": "[1]", "result": ">100", "unit": "µg/mL"}, {"measurement": "Antiviral EC50 HSV-1", "setting": "HSV-1; [7]", "result": 45, "unit": "µg/mL"}, {"measurement": "Cytotoxicity MCC", "setting": "VERO cells", "result": ">100", "unit": "µg/mL"}, {"measurement": "Cytotoxicity CC50", "setting": "CRFK feline kidney cells", "result": ">100", "unit": "µg/mL"}, {"measurement": "Antiviral EC50 Punto Toro virus", "setting": "Punto Toro virus; [8]", "result": ">100", "unit": "µg/mL"}, {"measurement": "Antiviral EC50 Sindbis virus", "setting": "Sindbis virus; [8]", "result": ">100", "unit": "µg/mL"}, {"measurement": "Antiviral EC50 Parainfluenza-3 virus", "setting": "Parainfluenza-3 virus; [8]", "result": ">100", "unit": "µg/mL"}, {"measurement": "Antiviral EC50 Vaccinia virus", "setting": "Vaccinia virus", "result": 45, "unit": "µg/mL"}, {"measurement": "Antiviral EC50 Coxsackie B4 virus", "setting": "Coxsackie B4 virus; [8]", "result": ">100", "unit": "µg/mL"}, {"measurement": "Antiviral EC50 HSV-2", "setting": "HSV-2; [7]", "result": "≥45", "unit": "µg/mL"}, {"measurement": "Cytotoxicity MCC", "setting": "[2]", "result": "≥100", "unit": "µg/mL"}, {"measurement": "antiviral EC50 values, anti-DNA virus activity", "setting": "DNA virus", "result": "about 45 µg/mL"}, {"measurement": "Antiviral EC50 Reovirus-1", "setting": "Reovirus-1; [8]", "result": ">100", "unit": "µg/mL"}, {"measurement": "H37Rv Finding MIC", "setting": "[3]", "result": ">100", "unit": "µg/mL"}, {"measurement": "H37Rv Finding Activity", "setting": "[3]", "result": "Weak Active"}]}
{"molecule": "O=C(Cc1csc2nc(-c3ccc(Br)cc3)cn12)NN1C(=O)CSC12CCC(c1ccc(O)cc1)CC2", "note": "(stereo not drawn) [Compound 5d, 2-[6-(4-Bromophenyl)imidazo[2,1-b]thiazole-3-yl]-N-(3-oxo-8-(4-hydroxyphenyl)-1-thia-4-azaspiro[4.5]dec-4-yl)acetamide]", "values": [{"measurement": "EC50", "setting": "Feline herpesvirus", "result": 21, "unit": "µg/mL"}, {"measurement": "EC50", "setting": "ACV^r-HSV-1; Human alphaherpesvirus 1, HEL, read-out: Antiviral EC50 ACV^r-HSV-1", "result": "> 100", "unit": "µg/mL"}, {"measurement": "selectivity ratio", "setting": "in vitro [4]", "result": "> 20"}, {"measurement": "EC50", "setting": "HSV-1; Human alphaherpesvirus 1, HEL, read-out: Antiviral EC50 HSV-1", "result": "> 100", "unit": "µg/mL"}, {"measurement": "Cytotoxicity MCC", "setting": "VERO cells", "result": ">100", "unit": "µg/mL"}, {"measurement": "EC50", "setting": "Punto Toro virus; Punta Toro virus, Vero, read-out: Antiviral EC50 Punto Toro virus", "result": "> 100", "unit": "µg/mL"}, {"measurement": "EC50", "setting": "Sindbis virus; Sindbis virus, Vero, read-out: Antiviral EC50 Sindbis virus", "result": "> 100", "unit": "µg/mL"}, {"measurement": "EC50", "setting": "Parainfluenza-3 virus; Vero, read-out: Antiviral EC50 Parainfluenza-3 virus", "result": "> 100", "unit": "µg/mL"}, {"measurement": "EC50", "setting": "Vaccinia virus; Orthopoxvirus vaccinia, HEL, read-out: Antiviral EC50 Vaccinia virus", "result": "> 100", "unit": "µg/mL"}, {"measurement": "EC50", "setting": "Coxsackie B4 virus; Enterovirus B, B4, Vero, read-out: Antiviral EC50 Coxsackie B4 virus", "result": "> 100", "unit": "µg/mL"}, {"measurement": "EC50", "setting": "HSV-2; Human alphaherpesvirus 2, HEL, read-out: Antiviral EC50 HSV-2", "result": "> 100", "unit": "µg/mL"}, {"measurement": "Cytotoxicity MCC", "setting": "[2]", "result": 20, "unit": "µg/mL"}, {"measurement": "EC50", "setting": "Feline coronavirus", "result": 4.8, "unit": "µg/mL"}, {"measurement": "EC50", "setting": "Reovirus-1; Vero, read-out: Antiviral EC50 Reovirus-1", "result": "> 100", "unit": "µg/mL"}]}
{"molecule": "CO[C@H]1/C=C/O[C@@]2(C)Oc3c(C)c(O)c4c(O)c(c(/C=N/N5CCN(C)CC5)c(O)c4c3C2=O)NC(=O)/C(C)=C\\C=C\\[C@H](C)[C@H](O)[C@@H](C)[C@@H](O)[C@@H](C)[C@H](OC(C)=O)[C@@H]1C", "note": "[Rifampin, reference compound]", "values": [{"measurement": "MIC", "setting": "[5]", "result": 0.125, "unit": "µg/mL"}, {"measurement": "CC50", "setting": "in vitro [6]", "result": "> 100", "unit": "µg/mL"}, {"measurement": "H37Rv Finding Activity", "setting": "[3]", "result": "Active"}]}
